Source: patent US10294202B2, “Pyrrolidinones as herbicides” (FMC Corporation, priority 2013, dated 2019)

Tests used:
Experiment in all cases: Test C pre-/postemergence herbicide test
cocklebur = type: in vivo, Xanthium strumarium
Summary of the method: (§1)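 Herbicidal effect was judged by eye 13 to 15 days after treatment in the greenhouse, using a 0–100 scale against controls. Chemicals in a non-phytotoxic solvent with surfactant were sprayed onto planted loam/sand soil or onto plants 2 to 18 cm tall in a peat-based growing medium.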

bermudagrass = type: in vivo, Cynodon dactylon
Summary of the method: as §1

Russian thistle = type: in vivo, Salsola kali; settings: Preemergence
Text: (§2) Seeds of plant species selected from blackgrass (Alopecurus myosuroides), ryegrass, Italian (Italian ryegrass, Lolium multiflorum), wheat (winter wheat, Triticum aestivum), galium (catchweed bedstraw, Galium aparine), corn (Zea mays), crabgrass, large (large crabgrass, Digitaria sanguinalis), foxtail, giant (giant foxtail, Setaria faberii), johnsongrass (Sorghum halepense), lambsquarters (Chenopodium album), morningglory (Ipomoea coccinea), nutsedge, yellow (yellow nutsedge, Cyperus esculentus), pigweed (Amaranthus retroflexus), ragweed (common ragweed, Ambrosia elatior), soybean (Glycine max), barnyardgrass (Echinochloa crus-galli), oilseed rape (Brassica napus), waterhemp (common waterhemp, Amaranthus rudis), kochia (Kochia scoparia), oat, wild (wild oat, Avena fatua), surinam grass (Brachiaria decumbens), foxtail, green (green foxtail, Setaria viridis), goosegrass (Eleusine indica), bromegrass, downy (downy bromegrass, Bromus tectorum), nightshade (eastern black nightshade, Solanum ptycanthum), cocklebur (common cocklebur, Xanthium strumarium), cupgrass, woolly (woolly cupgrass, Eriochloa villosa), bermudagrass (Cynodon dactylon), sunflower, (common oilseed sunflower, Helianthus annuus), Russian thistle (Salsola kali) and velvetleaf (Abutilon theophrasti) were planted into a blend of loam soil and sand and treated preemergence with test chemicals formulated in a non-phytotoxic solvent mixture which included a surfactant. At the same time, plants selected from these crop and weed species and also barley (winter barley, Hordeum vulgare), […]), chickweed (common chickweed, Stellaria media), deadnettle (henbit deadnettle, Lamium amplexicaule), and canarygrass (littleseed canarygrass, Phalaris minor) were planted in pots containing Redi-Earth® planting medium (Scotts Company, 14111 Scottslawn Road, Marysville, Ohio 43041) comprising spaghnum peat moss, vermiculite, wetting agent and starter nutrients and treated with postemergence applications of test chemicals formulated in the same manner. Plants ranged in height from 2 to 18 cm (1- to 4-leaf stage) for postemergence treatments. Treated plants and controls were maintained in a greenhouse for 13 to 15 days, after which time all species were compared to controls and visually evaluated. Plant response ratings, summarized in Table C, are based on a scale of 0 to 100 where 0 is no effect and 100 is complete control. A dash (-) response means no test result.

sunflower = type: in vivo, Helianthus annuus; settings: Preemergence
Text: as §2

foxtail, green = type: in vivo, Setaria viridis
Text: as §2

nightshade = type: in vivo, Solanum ptycanthum; settings: Preemergence
Text: as §2

cupgrass, woolly = type: in vivo, Eriochloa villosa
Text: as §2

bromegrass, downy = type: in vivo, Bromus tectorum
Summary of the method: as §1

kochia = type: in vivo, Kochia scoparia
Summary of the method: as §1

goosegrass = type: in vivo, Eleusine indica
Text: as §2

surinam grass = type: in vivo, Brachiaria decumbens
Text: as §2

[1] = Postemergence, 31 g ai/ha, scale 0 (no effect) to 100 (complete control)
[2] = Postemergence, 62 g ai/ha, scale 0 to 100 (0 no effect, 100 complete control)
[3] = Postemergence, 125 g ai/ha, scale 0 to 100 (0 no effect, 100 complete control)
[4] = Postemergence, 250 g ai/ha, scale 0 to 100 (0 no effect, 100 complete control)
[5] = Preemergence, 31 g ai/ha, scale 0 to 100, 0 is no effect and 100 is complete control
[6] = Preemergence, 62 g ai/ha, scale 0 to 100
[7] = Preemergence, 125 g ai/ha, scale 0 to 100 (0 no effect, 100 complete control)
[8] = 31 g ai/ha, scale 0 to 100, 0 is no effect and 100 is complete control
[9] = 125 g ai/ha, scale 0 to 100 (0 no effect, 100 complete control)
[10] = Preemergence, 31 g ai/ha, scale 0 to 100 (0 no effect, 100 complete control)
[11] = Preemergence, 250 g ai/ha, scale 0 to 100 (0 no effect, 100 complete control)

O=C1NCC(c2ccccc2)C1C(=O)Nc1ccccc1F (racemic) [Compound 81] was tested, and the “Plant response rating, Cocklebur” value (cocklebur; [1]) was 0, the “Plant response rating, Cocklebur” value (cocklebur; [2]) was 0 and the “Plant response rating, Cocklebur” value (cocklebur; [3]) was 0. For the same compound, the “Plant response rating, Cocklebur” value (cocklebur; [4]) was 0, the “Cocklebur plant response rating” value (cocklebur; [5]) was 0 and the “Plant response rating, Cocklebur” value (cocklebur; [6]) was 0. The “Plant response rating, Cocklebur” value (cocklebur; [7]) was 0, the “Plant response rating (scale of 0 to 100), Cocklebur” value (cocklebur; Preemergence, 250 g ai/ha) was 0 and the “Plant response rating, Bermudagrass” value (bermudagrass; [1]) was 0. For the same compound, the “Plant response rating, Bermudagrass” value (bermudagrass; [2]) was 0, the “Plant response rating, Bermudagrass” value (bermudagrass; [3]) was 0 and the “Plant response rating, Bermudagrass” value (bermudagrass; [4]) was 0. The “Bermudagrass plant response rating” value (bermudagrass; [5]) was 0, the “Plant response rating, Bermudagrass” value (bermudagrass; [6]) was 0 and the “Plant response rating, Bermudagrass” value (bermudagrass; [7]) was 0. The “Plant response rating (scale of 0 to 100), Bermudagrass” value (bermudagrass; Preemergence, 250 g ai/ha) was 0, the “Russian Thistle plant response rating” value (Russian thistle; [8]) was 0 and the “Plant response rating, Russian Thistle” value (Russian thistle; 62 g ai/ha, scale 0 to 100) was 0. The “Plant response rating, Russian Thistle” value (Russian thistle; [9]) was 0, the “Plant response rating (scale of 0 to 100), Russian Thistle” value (Russian thistle; 250 g ai/ha) was 0 and the “Sunflower plant response rating” value (sunflower; [8]) was 0. For the same compound, the “Plant response rating Sunflower” value (sunflower; 62 g ai/ha, scale 0 to 100) was 0, the “Plant response rating Sunflower” value (sunflower; [9]) was 0 and the “Plant response rating (scale of 0 to 100), Sunflower” value (sunflower; 250 g ai/ha) was 0. The “Plant response rating, Foxtail, Green” value (foxtail, green; [1]) was 5, the “Plant response rating, Foxtail, Green” value (foxtail, green; [2]) was 5 and the “Plant response rating, Foxtail, Green” value (foxtail, green; [3]) was 20. The “Plant response rating, Foxtail, Green” value (foxtail, green; [4]) was 48, the “Foxtail, Green plant response rating” value (foxtail, green; [5]) was 20 and the “Plant response rating, Foxtail, Green” value (foxtail, green; [6]) was 67. For the same compound, the “Plant response rating, Foxtail, Green” value (foxtail, green; [7]) was 80, the “Plant response rating (scale of 0 to 100), Foxtail, Green” value (foxtail, green; Preemergence, 250 g ai/ha) was 90 and the “Nightshade plant response rating” value (nightshade; [8]) was 0. The “Plant response rating, Nightshade” value (nightshade; 62 g ai/ha, scale 0 to 100) was 0, the “Plant response rating, Nightshade” value (nightshade; [9]) was 0 and the “Plant response rating (scale of 0 to 100), Nightshade” value (nightshade; 250 g ai/ha) was 0. The “Plant response rating, Cupgrass, Woolly” value (cupgrass, woolly; [1]) was 0, the “Plant response rating, Cupgrass, Woolly” value (cupgrass, woolly; [2]) was 0 and the “Plant response rating, Cupgrass, Woolly” value (cupgrass, woolly; [3]) was 0. The “Plant response rating, Cupgrass, Woolly” value (cupgrass, woolly; [4]) was 0, the “Cupgrass, Woolly plant response rating” value (cupgrass, woolly; [5]) was 0 and the “Plant response rating, Cupgrass, Woolly” value (cupgrass, woolly; [6]) was 32. The “Plant response rating, Cupgrass, Woolly” value (cupgrass, woolly; [7]) was 67, the “Plant response rating (scale of 0 to 100), Cupgrass, Woolly” value (cupgrass, woolly; Preemergence, 250 g ai/ha) was 82 and the “Plant response rating, Bromegrass, Downy” value (bromegrass, downy; [1]) was 0. The “Plant response rating, Bromegrass, Downy” value (bromegrass, downy; [2]) was 0, the “Plant response rating, Bromegrass, Downy” value (bromegrass, downy; [3]) was 0 and the “Plant response rating, Bromegrass, Downy” value (bromegrass, downy; [4]) was 7. For the same compound, the “Bromegrass, Downy plant response rating” value (bromegrass, downy; [5]) was 0, the “Plant response rating, Bromegrass, Downy” value (bromegrass, downy; [6]) was 0 and the “Plant response rating, Bromegrass, Downy” value (bromegrass, downy; [7]) was 0. For the same compound, the “Plant response rating (scale of 0 to 100), Bromegrass, Downy” value (bromegrass, downy; Preemergence, 250 g ai/ha) was 0, the “Plant response rating, Kochia” value (kochia; [1]) was 0 and the “Plant response rating, Kochia” value (kochia; [2]) was 0. For the same compound, the “Plant response rating, Kochia” value (kochia; [3]) was 0, the “Plant response rating, Kochia” value (kochia; [4]) was 0 and the “Plant response rating, Goosegrass” value (goosegrass; [1]) was 0. For the same compound, the “Plant response rating, Goosegrass” value (goosegrass; [2]) was 0, the “Plant response rating, Goosegrass” value (goosegrass; [3]) was 0 and the “Plant response rating, Goosegrass” value (goosegrass; [4]) was 0. The “Goosegrass plant response rating” value (goosegrass; [5]) was 0, the “Plant response rating, Goosegrass” value (goosegrass; [6]) was 0 and the “Plant response rating, Goosegrass” value (goosegrass; [7]) was 0. The “Plant response rating (scale of 0 to 100), Goosegrass” value (goosegrass; Preemergence, 250 g ai/ha) was 0, the “Plant response rating, Surinam Grass” value (surinam grass; [1]) was 0 and the “Plant response rating, Surinam Grass” value (surinam grass; [2]) was 0. For the same compound, the “Plant response rating, Surinam Grass” value (surinam grass; [3]) was 0, the “Plant response rating, Surinam Grass” value (surinam grass; [4]) was 0 and the “Surinam Grass plant response rating” value (surinam grass; [5]) was 0. For the same compound, the “Plant response rating, Surinam Grass” value (surinam grass; [6]) was 53, the “Plant response rating, Surinam Grass” value (surinam grass; [7]) was 77 and the “Plant response rating (scale of 0 to 100), Surinam Grass” value (surinam grass; Preemergence, 250 g ai/ha) was 90.
In the case of O=C1NCC(c2ccc(F)cc2)C1C(=O)Nc1ccccc1F (racemic) [Compound 16], the “Cocklebur plant response rating” value (cocklebur; [10]) is reported as 0, the “Plant response rating, Cocklebur” value (cocklebur; [6]) is reported as 0 and the “Plant response rating, Cocklebur” value (cocklebur; [7]) is reported as 0. For the same compound, the “Plant response rating, Cocklebur” value (cocklebur; [11]) was 0, the “Bermudagrass plant response rating” value (bermudagrass; [10]) was 0 and the “Plant response rating, Bermudagrass” value (bermudagrass; [6]) was 0. The “Plant response rating, Bermudagrass” value (bermudagrass; [7]) was 90, the “Plant response rating, Bermudagrass” value (bermudagrass; [11]) was 95 and the “Plant response rating, Russian Thistle” value (Russian thistle; 62 g ai/ha, scale 0 to 100) was 0. The “Plant response rating, Russian Thistle” value (Russian thistle; [9]) was 0, the “Plant response rating Sunflower” value (sunflower; 62 g ai/ha, scale 0 to 100) was 0 and the “Plant response rating Sunflower” value (sunflower; [9]) was 0. For the same compound, the “Foxtail, Green plant response rating” value (foxtail, green; [10]) was 5, the “Plant response rating, Foxtail, Green” value (foxtail, green; [6]) was 35 and the “Plant response rating, Foxtail, Green” value (foxtail, green; [7]) was 80. For the same compound, the “Plant response rating, Foxtail, Green” value (foxtail, green; [11]) was 90, the “Plant response rating, Nightshade” value (nightshade; 62 g ai/ha, scale 0 to 100) was 0 and the “Plant response rating, Nightshade” value (nightshade; [9]) was 0. For the same compound, the “Cupgrass, Woolly plant response rating” value (cupgrass, woolly; [10]) was 55, the “Plant response rating, Cupgrass, Woolly” value (cupgrass, woolly; [6]) was 95 and the “Plant response rating, Cupgrass, Woolly” value (cupgrass, woolly; [7]) was 95. The “Plant response rating, Cupgrass, Woolly” value (cupgrass, woolly; [11]) was 95, the “Bromegrass, Downy plant response rating” value (bromegrass, downy; [10]) was 0 and the “Plant response rating, Bromegrass, Downy” value (bromegrass, downy; [6]) was 5. The “Plant response rating, Bromegrass, Downy” value (bromegrass, downy; [7]) was 30, the “Plant response rating, Bromegrass, Downy” value (bromegrass, downy; [11]) was 35 and the “Plant response rating, Kochia” value (kochia; [6]) was 0. The “Plant response rating, Kochia” value (kochia; [7]) was 0, the “Goosegrass plant response rating” value (goosegrass; [10]) was 0 and the “Plant response rating, Goosegrass” value (goosegrass; [6]) was 0. For the same compound, the “Plant response rating, Goosegrass” value (goosegrass; [7]) was 0, the “Plant response rating, Surinam Grass” value (surinam grass; [6]) was 95 and the “Plant response rating, Surinam Grass” value (surinam grass; [7]) was 98.
